Columns and labels:
[1] = system: ATM; assay: ATM activation (pChk2 Western blot) in HSV-1 infected hTCEpi cells; type: cell-based, human; details: for effect on ATM activation (pChk2 staining): hTCEpi infected with HSV-1 at a range of MOIs, 1 hpi, PAA 400 μg/ml, CHX 5 μg/ml
Protocol: Standard protocol was followed for Western blot analysis. Cell lysates were collected in Laemmli buffer, vortexed, and boiled at 95° C. for 5 min. Protein concentrations were measured by reducing agent-compatible BCA assay. SDS-PAGE was followed by transfer onto a PVDF membrane, which was then blocked in 5% BSA. Primary antibody staining was performed overnight and blots were visualized on film or with the Odyssey near-infrared system (LI-COR, Lincoln, Nebr.). Primary antibodies against the following proteins were used: ICP0 (Virusys Corporation, Taneytown, Md.), ICP4, PML, and nucleolin (Santa Cruz Biotechnology, Santa Cruz, Calif.), ICP8, glycoproteins B and C, ATM and pATM-Ser1981 (Rockland, Gilbertsville, Pa.), Chk2 and pChk2-Thr68 (Cell Signaling, Danvers, Mass.).
(§1) hTCEpi, EPC2, and OKF6 are normal human epithelial cells from cornea, esophagus, and palate, respectively. HEK293 are human embryonic kidney epithelial cells. Cells were treated with tissue culture grade KU-55933 (10 μM), cycloheximide (5 μg/ml), phosphonoacetic acid (400 μg/ml), and H2O2 (150 μM). Viral particles were pre-treated with UV light at 0.2 J/cm^2.
Cultured cells were infected by applying the desired viral load in an inoculum volume equal to 10% of the normal volume of growth medium. During infection, cells were maintained at 37° C. and 5% CO2 and rocked every 10-15 min for 1 hour. Cells were then rinsed thoroughly with PBS and overlaid with fresh medium. For synchronized infections, virus was allowed to adsorb to cells while rocking at 4° C. After 1 hour, cells were transferred to 37° C. and 5% CO2 to initiate synchronized infection.

[2] = system: ATM; assay: pATM immunofluorescence in HEK293 cells transfected with purified HSV-1 genome; type: cell-based, human; details: HEK293 transfected with HSV-1 KOS genome, PAA for 24 hours
Protocol: Transfection of plasmids was done with GenDrill (BamaGen, Gaithersburg, Md.), whereas transfection of BACs was accomplished with Lipofectamine transfection reagent (Invitrogen, Carlsbad, Calif.). All transfections followed standard protocols and manufacturer's instructions. Medium was changed at 6 hour post transfection.
Cells were grown on cover slips, treated as indicated, fixed in 3% paraformaldehyde/2% sucrose solution for 10 min, and permeabilized with 0.5% Triton X-100 for 5 min. Indirect immunofluorescence was performed with primary antibodies overnight followed by secondary antibody staining for 2 hours. Primary antibodies were the same as those used for Western blotting. Nuclei were counterstained with […] of Höchst 33258.
as §1

[3] = molecular target: T1, ATM (Homo sapiens, UniProt Q13315); assay: pATM Western blot in bleomycin-damaged ex vivo human corneas (bioavailability); type: cell-based; details: bleomycin 200 μg/mL 1 hour, KU-55933 10 μM 1 hour pretreatment
T1 construct: The epithelial layers were collected for protein lysates and analyzed by Western blot with antibodies against pATM (Ser1981) and total ATM; tissue Lions Eye Bank of Delaware Valley; host or cells: epithelial layer of explanted human corneas
Protocol: Human corneas were obtained from the Lions Eye Bank of Delaware Valley. Rabbit corneas were excised from intact fresh eyeballs of young (8-12 weeks) albino rabbits (Pel-Freez Biologicals, Rogers, Ark.). Protocol (Alekseev et al., 2012, J Vis Exp 69:e3631) for ex vivo corneal culture, infection, and treatment was followed closely. Briefly, corneoscleral buttons were excised and rinsed in PBS containing 200 U/mL penicillin and 200 μg/mL streptomycin. The endothelial concavity was filled with culture medium containing 1% low melting temperature agarose. The corneas were cultured epithelial side up in MEM medium supplemented with nonessential amino acids (1×), 2 mM […], 200 U/mL penicillin, and 200 μg/mL streptomycin. The next day, they were infected with 1×10^4 plaque forming units (PFU)/cornea of strain KOS HSV-1 for 1 hour, rinsed, and overlaid with fresh medium. Drug treatments were administered at the same concentrations as for cultured cells. For KU-55933 bioavailability assessment, corneas were treated with bleomycin (200 μg/mL) for 1 hour. […] Treatment toxicity was assessed by briefly staining the cornea with fluorescein (1% wt/vol in PBS) and imaging the epithelial defects with 464-nm wavelength blue light (LDP LLC, Carlstadt, N.J.).
Standard protocol was followed for Western blot analysis. […] Protein concentrations were measured by bicinchoninic acid (BCA) assay. […]

[4] = system: dlsptk strain of HSV-1 (TK mutant); assay: qPCR of genome replication of drug-resistant HSV-1 in hTCEpi cells; type: cell-based; details: MOI 0.1, 16 hpi, KU-55933 10 μM, acyclovir 50 μg/mL
Protocol: All cells were cultured at 37° C. and 5% CO2 and supplemented with 100 U/mL penicillin and […]. Human corneal epithelial cells immortalized with hTERT (hTCEpi; Robertson, et al., 2005, Invest Ophthalmol Vis Sci. 46:470-478) were grown in complete keratinocyte growth medium 2 (KGM-2; Lonza, Basel, Switzerland). African green monkey kidney fibroblasts (CV-1; American Type Culture Collection, Manassas, Va.) were grown in Dulbecco's modified Eagle's medium (DMEM; Cellgro, Manassas, Va.) supplemented with 10% FBS. The KOS strain of HSV-1 was used in the in vitro and ex vivo infections, whereas McKrae strain was used for in vivo mouse experiments, and TK mutant dlsptk strain (Coen et al., 1989, Proc Natl Acad Sci USA 86:4736-4740) was used in the drug resistance experiments. All viral stocks were titered on CV-1 monolayers.
The following strains of HSV-1 were used: KOS, ICPO-null, HFEM, and tsB7. Subconfluent monolayers of cells were grown in six-well plates. Drug treatments were administered 45 minutes prior to infection and continued for the entire duration of each experiment. Unless indicated otherwise, KU-55933 (Batch No. 5, 99.7% purity; Tocris Bioscience, Bristol, UK) was used at 10 μM final concentration, phosphonoacetic acid (PAA) at 400 μg/mL (Sigma-Aldrich, St. Louis, Mo.), and acyclovir at 50 μg/mL (Sigma-Aldrich). KU-55933 was dissolved in dimethyl sulfoxide (DMSO), and the final concentration of DMSO in both KU-55933 and mock treatment in the in vitro and the ex vivo experiments was 0.1%.
Viral genome replication and transcription were measured by quantitative PCR (qPCR). Total DNA and RNA from infected cells were isolated using the DNeasy Blood & Tissue Kit and the RNeasy Mini Kit, respectively (QIAGEN, Hilden, Germany). RNA was converted to cDNA using qScript (Quanta BioSciences, Gaithersburg, Md.). […] Transcription of the three gene families was measured with primers for RL2 (ICPO), UL30 (DNA polymerase catalytic subunit), and UL44 (gC), with reference primers for the 18S ribosomal RNA (rRNA).

T1 sequence (Q13315 whole entry): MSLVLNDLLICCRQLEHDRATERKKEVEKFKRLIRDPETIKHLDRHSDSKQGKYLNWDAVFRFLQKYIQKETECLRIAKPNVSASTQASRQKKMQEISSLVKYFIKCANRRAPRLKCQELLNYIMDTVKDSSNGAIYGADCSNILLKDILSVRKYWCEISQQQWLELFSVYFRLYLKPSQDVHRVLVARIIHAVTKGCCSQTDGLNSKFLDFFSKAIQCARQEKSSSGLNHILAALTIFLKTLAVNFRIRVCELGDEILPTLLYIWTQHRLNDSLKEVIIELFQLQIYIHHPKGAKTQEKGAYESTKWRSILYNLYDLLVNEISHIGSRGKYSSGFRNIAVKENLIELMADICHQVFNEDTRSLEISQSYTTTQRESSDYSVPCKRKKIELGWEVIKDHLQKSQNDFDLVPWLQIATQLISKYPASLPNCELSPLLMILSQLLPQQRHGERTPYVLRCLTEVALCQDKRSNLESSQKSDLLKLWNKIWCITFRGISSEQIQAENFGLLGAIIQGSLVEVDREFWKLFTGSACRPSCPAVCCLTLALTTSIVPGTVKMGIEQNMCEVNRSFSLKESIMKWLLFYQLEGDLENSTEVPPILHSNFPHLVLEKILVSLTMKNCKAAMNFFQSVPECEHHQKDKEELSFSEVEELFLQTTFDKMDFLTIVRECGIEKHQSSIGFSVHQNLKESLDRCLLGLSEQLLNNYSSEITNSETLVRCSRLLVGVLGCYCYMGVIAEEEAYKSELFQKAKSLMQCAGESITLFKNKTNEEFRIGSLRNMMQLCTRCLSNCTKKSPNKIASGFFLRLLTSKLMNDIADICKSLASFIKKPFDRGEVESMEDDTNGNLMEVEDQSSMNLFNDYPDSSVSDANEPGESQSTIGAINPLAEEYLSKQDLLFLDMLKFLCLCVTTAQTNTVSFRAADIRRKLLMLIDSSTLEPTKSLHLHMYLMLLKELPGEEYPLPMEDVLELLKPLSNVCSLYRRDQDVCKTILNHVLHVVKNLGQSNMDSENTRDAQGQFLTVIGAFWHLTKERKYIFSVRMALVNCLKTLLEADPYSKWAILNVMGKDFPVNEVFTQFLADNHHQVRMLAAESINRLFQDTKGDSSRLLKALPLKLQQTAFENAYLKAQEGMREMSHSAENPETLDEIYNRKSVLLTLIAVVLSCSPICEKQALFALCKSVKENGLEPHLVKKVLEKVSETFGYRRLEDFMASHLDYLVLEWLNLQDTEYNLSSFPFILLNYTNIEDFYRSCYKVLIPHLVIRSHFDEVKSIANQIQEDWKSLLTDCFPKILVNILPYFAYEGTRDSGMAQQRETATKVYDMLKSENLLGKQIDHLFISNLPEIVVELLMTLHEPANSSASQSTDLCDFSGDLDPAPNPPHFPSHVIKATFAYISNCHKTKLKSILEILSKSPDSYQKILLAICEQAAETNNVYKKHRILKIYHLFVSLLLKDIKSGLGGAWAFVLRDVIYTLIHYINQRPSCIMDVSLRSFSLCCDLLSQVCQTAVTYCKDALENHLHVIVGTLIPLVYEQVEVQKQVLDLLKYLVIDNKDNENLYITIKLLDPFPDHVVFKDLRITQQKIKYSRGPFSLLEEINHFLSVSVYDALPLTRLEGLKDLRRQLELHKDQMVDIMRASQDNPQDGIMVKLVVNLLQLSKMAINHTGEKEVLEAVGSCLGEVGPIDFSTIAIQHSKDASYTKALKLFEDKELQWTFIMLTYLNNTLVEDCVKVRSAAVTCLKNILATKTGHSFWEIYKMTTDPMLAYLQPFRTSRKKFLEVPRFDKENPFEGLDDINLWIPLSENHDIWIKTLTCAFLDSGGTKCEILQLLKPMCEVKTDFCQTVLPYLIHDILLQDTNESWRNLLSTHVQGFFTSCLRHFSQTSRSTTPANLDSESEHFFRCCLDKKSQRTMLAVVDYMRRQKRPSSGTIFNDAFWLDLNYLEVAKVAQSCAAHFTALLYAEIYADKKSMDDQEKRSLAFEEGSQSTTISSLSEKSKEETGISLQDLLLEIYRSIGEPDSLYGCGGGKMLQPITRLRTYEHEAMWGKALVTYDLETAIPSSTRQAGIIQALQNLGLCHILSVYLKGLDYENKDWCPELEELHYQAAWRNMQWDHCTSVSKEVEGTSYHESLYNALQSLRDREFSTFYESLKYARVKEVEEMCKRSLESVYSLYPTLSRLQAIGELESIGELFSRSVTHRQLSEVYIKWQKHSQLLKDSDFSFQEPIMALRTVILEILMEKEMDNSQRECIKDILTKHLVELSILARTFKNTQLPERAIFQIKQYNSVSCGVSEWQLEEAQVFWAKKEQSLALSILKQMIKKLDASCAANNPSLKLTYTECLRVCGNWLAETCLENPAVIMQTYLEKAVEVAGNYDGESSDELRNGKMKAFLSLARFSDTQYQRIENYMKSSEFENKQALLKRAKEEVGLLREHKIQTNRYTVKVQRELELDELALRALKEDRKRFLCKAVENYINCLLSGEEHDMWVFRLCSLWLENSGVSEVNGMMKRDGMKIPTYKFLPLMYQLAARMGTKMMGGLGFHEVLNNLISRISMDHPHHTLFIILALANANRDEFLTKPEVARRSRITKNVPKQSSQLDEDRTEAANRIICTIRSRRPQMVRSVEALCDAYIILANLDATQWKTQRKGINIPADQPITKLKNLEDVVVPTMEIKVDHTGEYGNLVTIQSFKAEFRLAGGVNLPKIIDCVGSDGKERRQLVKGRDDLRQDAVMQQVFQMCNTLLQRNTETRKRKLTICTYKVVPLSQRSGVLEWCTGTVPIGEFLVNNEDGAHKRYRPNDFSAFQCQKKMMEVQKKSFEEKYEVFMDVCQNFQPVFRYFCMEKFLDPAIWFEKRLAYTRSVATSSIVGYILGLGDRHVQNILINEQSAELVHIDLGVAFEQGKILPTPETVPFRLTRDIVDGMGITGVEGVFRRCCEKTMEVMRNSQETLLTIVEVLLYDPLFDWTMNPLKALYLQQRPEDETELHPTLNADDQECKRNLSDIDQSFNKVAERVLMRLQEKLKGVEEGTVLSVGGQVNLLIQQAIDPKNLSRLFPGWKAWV

Q: How did the “effect on ATM activation (pChk2 staining)” value [1] turn out when `O=C(O)CP(=O)(O)O` [PAA, phosphonoacetic acid] was run?
A: The value was “no effect”.

Q: And the “ATM activation (pATM staining) in treated transfected cells” value [2]?
A: The value was “not hindered in ATM activation”.

Q: For bleomycin, which “pATM level in corneal epithelium” value [3] is on record?
A: Its value is “high level of pATM”.

Q: How did the “effect on pChk2 staining in PML-depleted cells” value ([1]; PML-depleted hTCEpi cells, compared with WT hTCEpi cells) turn out when `C[C@@H]1C[C@@H]([C@H](O)CC2CC(=O)NC(=O)C2)C(=O)[C@@H](C)C1` [CHX, cycloheximide] was run?
A: The value was “same partial reduction”.

Q: And the “effect on ATM activation (pChk2 staining)” value [1]?
A: Its value is “partial inhibitory effect”.

Q: And the “effect on ATM activation by d120 (ICP4-null strain)” value ([1]; hTCEpi infected with d120, CHX 5 μg/ml)?
A: The value was “not affected”.

Q: With `Nc1nc2c(ncn2COCCO)c(=O)[nH]1` [acyclovir] as the molecule, how does the “genome replication of dlsptk strain (qPCR)” value [4] read?
A: Its value is “largely unresponsive”.

From patent publication US20210023089A1, “Compositions Useful for Treating Herpes Simplex Keratitis, and Methods Using Same” (priority 2013, published 2021)
